{"source": "PubChem BioAssay (NCI)", "experiment_in_all_cases": "NCI anticancer screen, dose series, 48 h", "key": {"[1]": {"tested_on": "SF-295 CNS"}, "[2]": {"tested_on": "HCT-15 colon"}, "[3]": {"tested_on": "A498 renal"}, "[4]": {"tested_on": "ACHN renal"}, "[5]": {"tested_on": "K-562 leukemia"}, "[6]": {"tested_on": "RPMI-8226 leukemia"}, "[7]": {"tested_on": "HT29 colon"}, "[8]": {"tested_on": "A549 NSCLC"}, "[9]": {"tested_on": "SW-620 colon"}, "[10]": {"tested_on": "DU-145 prostate"}, "[11]": {"tested_on": "SK-MEL-5 melanoma"}, "[12]": {"tested_on": "PC-3 prostate"}, "[13]": {"tested_on": "OVCAR-5 ovarian"}, "[14]": {"tested_on": "MDA-MB-435"}, "[15]": {"tested_on": "BT-549 breast"}, "[16]": {"tested_on": "SR leukemia"}, "[17]": {"tested_on": "OVCAR-8 ovarian"}, "[18]": {"tested_on": "SF-539 CNS"}, "[19]": {"tested_on": "COLO 205 colon"}, "[20]": {"tested_on": "UACC-62 melanoma"}, "[21]": {"tested_on": "MCF7 breast"}, "[22]": {"tested_on": "NCI-H226 lung"}, "[23]": {"tested_on": "SK-MEL-28 melanoma"}, "[24]": {"tested_on": "HS 578T breast"}, "[25]": {"tested_on": "TK-10 renal"}, "[26]": {"tested_on": "NCI-H23 lung"}, "[27]": {"tested_on": "SNB-19 CNS"}, "[28]": {"tested_on": "IGROV1 ovarian"}, "[29]": {"tested_on": "UO-31 renal"}, "[30]": {"tested_on": "MDA-MB-231 breast"}, "[31]": {"tested_on": "U251 CNS"}, "[32]": {"tested_on": "OVCAR-3 ovarian"}, "[33]": {"tested_on": "HL-60(TB) leukemia"}, "[34]": {"tested_on": "HCT-116 colon"}, "[35]": {"tested_on": "SN12C renal"}, "[36]": {"tested_on": "SK-MEL-2 melanoma"}, "[37]": {"tested_on": "786-0 renal"}, "[38]": {"tested_on": "NCI-H522 lung"}, "[39]": {"tested_on": "SNB-75 CNS"}, "[40]": {"tested_on": "SF-268 CNS"}, "[41]": {"tested_on": "MOLT-4 leukemia"}, "[42]": {"tested_on": "HOP-62 NSCLC"}, "[43]": {"tested_on": "EKVX NSCLC"}, "[44]": {"tested_on": "NCI/ADR-RES ovarian"}, "[45]": {"tested_on": "CAKI-1 renal"}, "[46]": {"tested_on": "RXF 393 renal"}, "[47]": {"tested_on": "KM12 colon"}, "[48]": {"tested_on": "LOX IMVI melanoma"}, "[49]": {"tested_on": "NCI-H460 lung"}}, "note": "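Grown in 96-well plates, cells were treated for 48 hours with each compound at five concentrations. Insufficient inhibition: endpoint recorded as highest concentration tested. At the GI50, growth is halved. The concentration for full growth arrest is given as TGI.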"}
{"smiles": "COc1ccc(/C=C/C(=O)c2ccc(Cl)cc2Cl)cc1", "values": [{"measurement": "GI50", "setting": "[1]", "result": 20.4, "unit": "µM"}, {"measurement": "TGI", "setting": "[1]", "result": 53.4, "unit": "µM"}, {"measurement": "GI50", "setting": "[2]", "result": 12.2, "unit": "µM"}, {"measurement": "TGI", "setting": "[2]", "result": 37, "unit": "µM"}, {"measurement": "GI50", "setting": "[3]", "result": 10.7, "unit": "µM"}, {"measurement": "TGI", "setting": "[3]", "result": 24.2, "unit": "µM"}, {"measurement": "GI50", "setting": "[4]", "result": 17.3, "unit": "µM"}, {"measurement": "TGI", "setting": "[4]", "result": 33.8, "unit": "µM"}, {"measurement": "GI50", "setting": "[5]", "result": 3.37, "unit": "µM"}, {"measurement": "TGI", "setting": "[5]", "result": "> 100", "unit": "µM"}, {"measurement": "GI50", "setting": "[6]", "result": 3.03, "unit": "µM"}, {"measurement": "TGI", "setting": "[6]", "result": 6.31, "unit": "µM"}, {"measurement": "GI50", "setting": "[7]", "result": 33.8, "unit": "µM"}, {"measurement": "TGI", "setting": "[7]", "result": "> 100", "unit": "µM"}, {"measurement": "GI50", "setting": "[8]", "result": 21.4, "unit": "µM"}, {"measurement": "TGI", "setting": "[8]", "result": 53.6, "unit": "µM"}, {"measurement": "GI50", "setting": "[9]", "result": 9.36, "unit": "µM"}, {"measurement": "TGI", "setting": "[9]", "result": "> 100", "unit": "µM"}, {"measurement": "GI50", "setting": "[10]", "result": 16, "unit": "µM"}, {"measurement": "TGI", "setting": "[10]", "result": 33.1, "unit": "µM"}, {"measurement": "GI50", "setting": "[11]", "result": 17.9, "unit": "µM"}, {"measurement": "TGI", "setting": "[11]", "result": 39, "unit": "µM"}, {"measurement": "GI50", "setting": "[12]", "result": 6.1, "unit": "µM"}, {"measurement": "TGI", "setting": "[12]", "result": 21.9, "unit": "µM"}, {"measurement": "GI50", "setting": "[13]", "result": 25.5, "unit": "µM"}, {"measurement": "TGI", "setting": "[13]", "result": 78.5, "unit": "µM"}, {"measurement": "GI50", "setting": "[14]", "result": 11.9, "unit": "µM"}, {"measurement": "TGI", "setting": "[14]", "result": 44.5, "unit": "µM"}, {"measurement": "GI50", "setting": "[15]", "result": 16.7, "unit": "µM"}, {"measurement": "TGI", "setting": "[15]", "result": 36.8, "unit": "µM"}, {"measurement": "GI50", "setting": "[16]", "result": 1.88, "unit": "µM"}, {"measurement": "TGI", "setting": "[16]", "result": "> 100", "unit": "µM"}, {"measurement": "GI50", "setting": "[17]", "result": 21.3, "unit": "µM"}, {"measurement": "TGI", "setting": "[17]", "result": 55.9, "unit": "µM"}, {"measurement": "GI50", "setting": "[18]", "result": 18.9, "unit": "µM"}, {"measurement": "TGI", "setting": "[18]", "result": 37.8, "unit": "µM"}, {"measurement": "GI50", "setting": "[19]", "result": 32, "unit": "µM"}, {"measurement": "TGI", "setting": "[19]", "result": "> 100", "unit": "µM"}, {"measurement": "GI50", "setting": "[20]", "result": 15, "unit": "µM"}, {"measurement": "TGI", "setting": "[20]", "result": 30.3, "unit": "µM"}, {"measurement": "GI50", "setting": "[21]", "result": 9.75, "unit": "µM"}, {"measurement": "TGI", "setting": "[21]", "result": 27.5, "unit": "µM"}, {"measurement": "GI50", "setting": "[22]", "result": 20.4, "unit": "µM"}, {"measurement": "TGI", "setting": "[22]", "result": 46.6, "unit": "µM"}, {"measurement": "GI50", "setting": "[23]", "result": 34, "unit": "µM"}, {"measurement": "TGI", "setting": "[23]", "result": 73.1, "unit": "µM"}, {"measurement": "GI50", "setting": "[24]", "result": 26.2, "unit": "µM"}, {"measurement": "TGI", "setting": "[24]", "result": 65.4, "unit": "µM"}, {"measurement": "GI50", "setting": "[25]", "result": 18.9, "unit": "µM"}, {"measurement": "TGI", "setting": "[25]", "result": 37.4, "unit": "µM"}, {"measurement": "GI50", "setting": "[26]", "result": 18.8, "unit": "µM"}, {"measurement": "TGI", "setting": "[26]", "result": 42.8, "unit": "µM"}, {"measurement": "GI50", "setting": "[27]", "result": 21.5, "unit": "µM"}, {"measurement": "TGI", "setting": "[27]", "result": 75.3, "unit": "µM"}, {"measurement": "GI50", "setting": "[28]", "result": 20.5, "unit": "µM"}, {"measurement": "TGI", "setting": "[28]", "result": 59, "unit": "µM"}, {"measurement": "GI50", "setting": "[29]", "result": 29.1, "unit": "µM"}, {"measurement": "TGI", "setting": "[29]", "result": 94.5, "unit": "µM"}, {"measurement": "GI50", "setting": "[30]", "result": 20.5, "unit": "µM"}, {"measurement": "TGI", "setting": "[30]", "result": 46.7, "unit": "µM"}, {"measurement": "GI50", "setting": "[31]", "result": 13.2, "unit": "µM"}, {"measurement": "TGI", "setting": "[31]", "result": 31.3, "unit": "µM"}, {"measurement": "GI50", "setting": "[32]", "result": 18.9, "unit": "µM"}, {"measurement": "TGI", "setting": "[32]", "result": 39, "unit": "µM"}, {"measurement": "GI50", "setting": "[33]", "result": 9.98, "unit": "µM"}, {"measurement": "TGI", "setting": "[33]", "result": 38.1, "unit": "µM"}, {"measurement": "GI50", "setting": "[34]", "result": 9.05, "unit": "µM"}, {"measurement": "TGI", "setting": "[34]", "result": 24.5, "unit": "µM"}, {"measurement": "GI50", "setting": "[35]", "result": 20.4, "unit": "µM"}, {"measurement": "TGI", "setting": "[35]", "result": 43.2, "unit": "µM"}, {"measurement": "GI50", "setting": "[36]", "result": 24.4, "unit": "µM"}, {"measurement": "TGI", "setting": "[36]", "result": 70.9, "unit": "µM"}, {"measurement": "GI50", "setting": "[37]", "result": 13.9, "unit": "µM"}, {"measurement": "TGI", "setting": "[37]", "result": 30.7, "unit": "µM"}, {"measurement": "GI50", "setting": "[38]", "result": 30.1, "unit": "µM"}, {"measurement": "TGI", "setting": "[38]", "result": "> 100", "unit": "µM"}, {"measurement": "GI50", "setting": "[39]", "result": 22.2, "unit": "µM"}, {"measurement": "TGI", "setting": "[39]", "result": 44.1, "unit": "µM"}, {"measurement": "GI50", "setting": "[40]", "result": 19, "unit": "µM"}, {"measurement": "TGI", "setting": "[40]", "result": 41.1, "unit": "µM"}, {"measurement": "GI50", "setting": "[41]", "result": 3.53, "unit": "µM"}, {"measurement": "TGI", "setting": "[41]", "result": "> 100", "unit": "µM"}, {"measurement": "GI50", "setting": "[42]", "result": 20.3, "unit": "µM"}, {"measurement": "TGI", "setting": "[42]", "result": 48.8, "unit": "µM"}, {"measurement": "GI50", "setting": "[43]", "result": 20.1, "unit": "µM"}, {"measurement": "TGI", "setting": "[43]", "result": 47.3, "unit": "µM"}, {"measurement": "GI50", "setting": "[44]", "result": 15.9, "unit": "µM"}, {"measurement": "TGI", "setting": "[44]", "result": 41.5, "unit": "µM"}, {"measurement": "GI50", "setting": "[45]", "result": 23.7, "unit": "µM"}, {"measurement": "TGI", "setting": "[45]", "result": 50.1, "unit": "µM"}, {"measurement": "GI50", "setting": "[46]", "result": 12.7, "unit": "µM"}, {"measurement": "TGI", "setting": "[46]", "result": 29.9, "unit": "µM"}, {"measurement": "GI50", "setting": "[47]", "result": 13.8, "unit": "µM"}, {"measurement": "TGI", "setting": "[47]", "result": 40.5, "unit": "µM"}, {"measurement": "GI50", "setting": "[48]", "result": 15.9, "unit": "µM"}, {"measurement": "TGI", "setting": "[48]", "result": 32.1, "unit": "µM"}, {"measurement": "GI50", "setting": "[49]", "result": 19.2, "unit": "µM"}, {"measurement": "TGI", "setting": "[49]", "result": 41.3, "unit": "µM"}]}
